The text below walks through data of patent EP2727627B1, “Oral and dental care and cleaning agents with Tocopherol acetate” (priority 2012, dated 2014).

The test system of data set [1] is Gingiva Fibroblasten. Nature of the data set: WST-1 vitality test (metabolic activity). Format: cell-based. As to conditions: for Vitalität [%] Mittelwert: 24 h incubation, untreated control = 100 %, mean of 6.
Excerpt: Als Maß für die Vitalität kann die metabolische Aktivität von Gingiva Fibroblasten nach Inkubation mit Tocopherylacetat gemessen werden. Das chromogene Tetrazoliumsalz WST-1 wird durch stoffwechselaktive Succinatdehydrogenasen lebender Zellen reduktiv aufgespalten, wobei ein wasserlösliches Formazansalz entsteht. Durch UV/VIS-spektroskopische Vermessung der Absorptionsintensität kann die Konzentration der intermediär gebildeten Formazansalze bestimmt werden, welche in Korrelation zur Aktivität der Succinatdehydrogenase steht.
(§1) Der WST-Vitalitätstest wurde in einer 96-Well Mikrotiterplatte in 6-fach Bestimmung durchgeführt. Dafür wurde pro Well eine definierte Zellzahl von Gingiva Fibroplasten in einem Volumen von 50 µl (microliter) ausgesät. Anschließend wurde Tocopherylacetat in absteigenden Konzentrationen dazugegeben. Nach 24 Stunden Inkubation wurden 10 µl des in Medium verdünnten Tetrazolium-Salzes WST-1 zu jedem Ansatz pipettiert. Es folgte eine dreistündige Inkubation bei 37°C und 5 % Kohlenstoffdioxid, bevor die Absorption bei einer Wellenlänge von 450 nm (Referenzwellenlänge 650 nm) in einem Spektrometer (ELISA-Reader) gemessen wurde. Die Werte der unbehandelten Kontrolle wurden gleich 100 % gesetzt und die Werte der behandelten Proben darauf bezogen.
Für jede Tocopherylacetat-Konzentration wurde eine 6-fach Bestimmung durchgeführt, aus den 6 Messwerten wurde jeweils der Mittelwert gebildet.
as §1, with “37 °C” for “37°C”

Data set [2] deals with Gingiva Fibroblasten. The data set can be described thus: ATP determination with ATPLite-M assay (cell energy content). Format: cell-based. An excerpt: ATP (Adenosintriphosphat) ist die universelle Speicherform für chemische Energie in Zellen. Die ATP-Bestimmung erfolgt mit Hilfe des ATPLiteTM-M Assays (Packard). Das Testprinzip dieses Assays beruht darauf, dass die Luciferase von Photinus pyralis eine Reaktion katalysiert, bei der in Gegenwart von ATP D-Luciferin in Oxyluciferin umgewandelt wird. Bei dieser Reaktion wird grünes Licht emittiert, das mit einem Luminometer gemessen werden kann. Das emittierte Biolumineszenzlicht ist proportional zur Menge des vorhandenen ATP. Zur Bestimmung der ATP-Aktivität in Gingiva Fibroblasten werden diese in geeigneter Weise unter Erhalt ihrer spezifischen Eigenschaften vorkultiviert (DE10162814) und in eine 96well-Zellkulturschale überführt. Die Behandlung mit dem Substanzgemisch erfolgte über 24 Stunden gegen eine unbehandelte Kontrolle. Anschließend wurden die Zellen mit jeweils 50 µl/Kavität eines im Testkit enthaltenen Lysepuffer für 5 min auf einem Schüttler lysiert. Danach wurden die Zellen für weitere 5 min mit jeweils 50 µl/Kavität mit der mitgelieferten Substratlösung auf dem Schüttler inkubiert und anschließend das Reaktionsgemisch in eine schwarze Mikrotiterplatte überführt. Nach einer Inkubationszeit von 10 min in der Dunkelheit erfolgte die Messung. Tabelle 2: Einfluss von Tocopherylacetat auf den Zellenergieinhalt

The mark [3] stands for this setting: Fibroblast, 24 h, read-out: Vitalität [%] Mittelwert.
Setting [4] is: low concentrations, Gingiva-Zellen, result in words.

As for `CC(=O)Oc1c(C)c(C)c2c(c1C)CCC(C)(CCCC(C)CCCC(C)CCCC(C)C)O2` (stereo not shown) [Tocopherylacetat], in the data set with Gingiva Fibroblasten [1] (setting [3]), the viability at 0.0005 % came to 133%, the viability at 0.001 % is 141%, the viability at 0.005 % was 138% and the viability at 0.01 % was 150%. Besides, the “Vitalität [%] Mittelwert” value with Gingiva Fibroblasten [1] (Konz. 0,01 Gew.-%) is recorded as 150,5%. Moreover, the “Vitalität [%] Mittelwert” value with Gingiva Fibroblasten [1] (Konz. 0,0005 Gew.-%) is on record as 132,9%. Besides, the “Vitalität [%] Mittelwert” value with Gingiva Fibroblasten [1] (Konz. 0,001 Gew.-%) is on record as 141,4%. The “Vitalität [%] Mittelwert” value with Gingiva Fibroblasten [1] (Konz. 0,005 Gew.-%) was 137,7%. Besides, the Vitalität entry in the data set with Gingiva Fibroblasten [1] (setting [4]) was “signifikanten Steigerung der Vitalität”. Also, in the data set on Gingiva Fibroblasten [2] (Fibroblast, Konz. 0,01 Gew.-%, 24 h treatment, versus untreated control (100,0), read-out: ATP-Gehalt [%] Mittelwert), the activity at 0.01 % came to 128%. Besides, the activity at 0.0025 % in the data set with Gingiva Fibroblasten [2] (Fibroblast, Konz. 0,0025 Gew.-%, 24 h treatment, versus untreated control (100,0), read-out: ATP-Gehalt [%] Mittelwert) is 125%. Besides, the activity at 0.005 % in the data set on Gingiva Fibroblasten [2] (Fibroblast, Konz. 0,005 Gew.-%, 24 h treatment, versus untreated control (100,0), read-out: ATP-Gehalt [%] Mittelwert) turned out to be 139%. Also, in the data set with Gingiva Fibroblasten [2] (setting [4]), the ATP-Gehalt entry was “signifikanten Steigerung des ATP-Gehaltes”.
